Paper PMC10132805 (Nature Communications, 2023)
“Also recorded” adds a separate entry of the source. Read-outs that look alike come from different tables or passages of the source. Residues, ends and D or L forms follow the SMILES beside them. No end group written: not given here. *: point of attachment. FITC = O=C1OC2(c3ccc(O)cc3Oc3cc(O)ccc32)c2ccc(NC(=S)*)cc21

Assays:
Format in all cases: binding
[1] = test system: 139 human bait protein domains; conditions: for specificity / RiboVD_mean_counts / RiboVD_count_proportions / peptide_counts_proportion: bait YAP1 WW-2 (P46937, 228-266); for RiboVD_mean_counts: mean sequencing counts over replicate selections; for RiboVD_count_proportions: proportion of counts; for motif_found: motif benchmarking set
ALIX V = ALIX V (Homo sapiens, UniProt Q8WUM4); experiment: biochemical
Sequence of ALIX V (Q8WUM4 360-702): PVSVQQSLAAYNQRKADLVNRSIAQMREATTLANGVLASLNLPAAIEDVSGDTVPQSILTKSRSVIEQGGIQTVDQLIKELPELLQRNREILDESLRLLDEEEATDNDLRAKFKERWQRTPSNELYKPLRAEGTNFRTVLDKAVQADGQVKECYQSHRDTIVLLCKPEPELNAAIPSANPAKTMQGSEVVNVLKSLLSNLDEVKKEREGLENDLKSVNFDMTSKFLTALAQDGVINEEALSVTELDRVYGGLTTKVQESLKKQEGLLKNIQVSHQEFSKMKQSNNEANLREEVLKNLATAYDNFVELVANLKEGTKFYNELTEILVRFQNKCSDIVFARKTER

CLTC NTD = CLTC NTD (Homo sapiens, UniProt Q00610); experiment: biochemical
Sequence of CLTC NTD (Q00610 2-479 limits assumed): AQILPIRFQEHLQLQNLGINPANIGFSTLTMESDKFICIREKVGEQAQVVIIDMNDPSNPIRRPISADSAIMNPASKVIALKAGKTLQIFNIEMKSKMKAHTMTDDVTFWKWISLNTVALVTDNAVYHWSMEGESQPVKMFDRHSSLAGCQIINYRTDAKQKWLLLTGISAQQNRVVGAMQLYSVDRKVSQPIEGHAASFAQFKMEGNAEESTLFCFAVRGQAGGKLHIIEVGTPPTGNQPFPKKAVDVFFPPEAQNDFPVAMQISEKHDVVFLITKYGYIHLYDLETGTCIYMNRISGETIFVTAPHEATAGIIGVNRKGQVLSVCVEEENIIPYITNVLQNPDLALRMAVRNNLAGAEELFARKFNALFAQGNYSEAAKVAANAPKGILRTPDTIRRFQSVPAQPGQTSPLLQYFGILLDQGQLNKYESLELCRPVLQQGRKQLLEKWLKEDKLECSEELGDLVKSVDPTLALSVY

PABPC1 PABC = PABPC1 PABC (Homo sapiens, UniProt P11940); experiment: biochemical
Sequence of PABPC1 PABC (P11940 542-619 limits assumed): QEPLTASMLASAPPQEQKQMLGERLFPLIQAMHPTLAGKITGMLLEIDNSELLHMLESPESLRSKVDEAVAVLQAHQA

NEDD4 WW2 = NEDD4 WW2 (Homo sapiens, UniProt P46934); experiment: biochemical
Sequence of NEDD4 WW2 (P46934 767-800 limits assumed): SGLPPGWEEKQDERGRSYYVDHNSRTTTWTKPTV

NEDD4 WW4 = NEDD4 WW4 (Homo sapiens, UniProt P46934); experiment: biochemical
Sequence of NEDD4 WW4 (P46934 892-925 limits assumed): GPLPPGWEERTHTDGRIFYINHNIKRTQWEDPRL

CEP55 EABR = CEP55 EABR (Homo sapiens, UniProt Q53EZ4); experiment: biochemical; conditions: for KD: pH 7.5
Sequence of CEP55 EABR (Q53EZ4 160-214 limits assumed): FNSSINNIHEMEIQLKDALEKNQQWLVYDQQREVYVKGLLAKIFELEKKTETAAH

AP2M1 MHD = AP2M1 MHD (Homo sapiens, UniProt Q96CW1); experiment: biochemical
Sequence of AP2M1 MHD (Q96CW1 170-434 limits assumed): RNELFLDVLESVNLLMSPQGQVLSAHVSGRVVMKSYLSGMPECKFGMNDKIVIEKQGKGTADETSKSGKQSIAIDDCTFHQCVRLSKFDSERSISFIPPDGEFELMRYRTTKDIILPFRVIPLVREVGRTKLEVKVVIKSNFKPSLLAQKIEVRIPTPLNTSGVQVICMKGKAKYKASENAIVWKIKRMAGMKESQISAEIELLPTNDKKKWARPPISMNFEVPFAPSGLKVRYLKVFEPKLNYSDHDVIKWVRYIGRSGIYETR

[2] = replicate 1 (first entry of cell)
[3] = replicate 2 (second entry of cell)
[4] = replicate 3 (third entry of cell)

AELNPPPYNHSYESLH showed a specificity [1] of 0.98, a RiboVD_mean_counts [1] of 1834 and a RiboVD_count_proportions [1] of 0.03738. It also gave a peptide_counts_proportion [1, 2] of 0.005, a peptide_counts_proportion [1, 3] of 0.079 and a peptide_counts_proportion [1, 4] of 0.028.

Compound LPPPEYVPLHEISSKG has a specificity [1] of 0.991, a RiboVD_mean_counts [1] of 729 and a RiboVD_count_proportions [1] of 0.02141. For the same compound, the peptide_counts_proportion [1, 2] was 0.029, the peptide_counts_proportion [1, 3] was 0.006 and the peptide_counts_proportion [1, 4] was 0.029.

`CC(C)C[C@H](NC(=O)[C@H](CO)NC(=O)[C@@H](NC(=O)[C@H](CC(C)C)NC(=O)[C@@H]1CCCN1C(=O)[C@@H]1CCCN1C(=O)[C@H](Cc1ccc(O)cc1)NC(=O)[C@H](CC(C)C)NC(=O)[C@H](CO)NC(=S)Nc1ccc2c(c1)C(=O)OC21c2ccc(O)cc2Oc2cc(O)ccc21)[C@@H](C)O)C(=O)N[C@@H](CCCNC(=N)N)C(=O)O` [FITC - gag 493-502 (HIV1)] ({FITC}-SLYPPLTSLR-OH) showed a Kd (ALIX V) of 2600 nM.

For `CC[C@H](C)[C@H](NC(=O)[C@H](CC(C)C)NC(=O)[C@H](CC(N)=O)NC(=O)[C@@H](NC(=O)[C@H](CC(=O)O)NC(=S)Nc1ccc2c(c1)C(=O)OC21c2ccc(O)cc2Oc2cc(O)ccc21)[C@@H](C)O)C(=O)N[C@@H](CCC(=O)O)C(=O)N[C@@H](Cc1ccccc1)C(=O)N[C@@H](CC(=O)O)C(=O)N[C@H](C(=O)N[C@@H](CC(N)=O)C(=O)O)[C@@H](C)O` [FITC - ARRB2 370-379 (Human)] ({FITC}-DTNLIEFDTN-OH), the Kd (CLTC NTD) was 26 µM.

With `CC(C)C[C@H](NC(=O)[C@H](CC(N)=O)NC(=O)[C@H](CO)NC(=O)[C@H](CCCCN)NC(=S)Nc1ccc2c(c1)C(=O)OC21c2ccc(O)cc2Oc2cc(O)ccc21)C(=O)N[C@@H](CC(N)=O)C(=O)N1CCC[C@H]1C(=O)N[C@@H](CC(N)=O)C(=O)N[C@@H](C)C(=O)N[C@@H](CCCCN)C(=O)N[C@@H](CCC(=O)O)C(=O)N[C@@H](Cc1ccccc1)C(=O)N[C@H](C(=O)N1CCC[C@H]1C(=O)NCC(=O)N[C@H](C(=O)N[C@@H](CCCCN)C(=O)O)C(C)C)C(C)C` [FITC - PAIP2 108-123 (Human), reference compound] ({FITC}-KSNLNPNAKEFVPGVK-OH) the Kd (PABPC1 PABC) was 380 nM.

For `C[C@H](NC(=O)[C@H](CO)NC(=O)[C@H](Cc1ccc(O)cc1)NC(=O)[C@@H]1CCCN1C(=O)[C@@H]1CCCN1C(=O)[C@@H]1CCCN1C(=O)[C@H](CO)NC(=O)[C@H](CC(=O)O)NC(=O)[C@@H](NC(=S)Nc1ccc2c(c1)C(=O)OC21c2ccc(O)cc2Oc2cc(O)ccc21)[C@@H](C)O)C(=O)NCC(=O)O` [FITC - UL56 46-55 (HHV2)] ({FITC}-TDSPPPYSAG-OH), the Kd (NEDD4 WW2) was 16 µM and the Kd (NEDD4 WW4) was 82 µM.

In the case of EPDQEPPPPYQEQVPV [RNF11 31-56 (Human)], the Kd (NEDD4 WW2) is reported as 13 µM and the Kd (NEDD4 WW4) is reported as 44 µM.

With `CC(C)C[C@H](NC(=O)[C@H](C)NC(=O)[C@@H]1CCCN1C(=O)[C@@H]1CCCN1C(=O)CNC(=O)[C@H](CO)NC(=O)[C@H](C)NC(=O)[C@@H](N)[C@@H](C)O)C(=O)N[C@@H](CCC(=O)O)C(=O)N[C@@H](Cc1c[nH]c2ccccc12)C(=O)N[C@@H](CO)C(=O)N[C@@H](C)C(=O)N[C@H](C(=O)N[C@@H](CC(N)=O)C(=O)N[C@@H](CCC(=O)O)C(=O)N[C@@H](CCCCN)C(=O)O)[C@@H](C)O` [P 177-192 (RABV)] the Kd (CEP55 EABR) was 22300 nM.

`C[C@H](NC(=O)[C@H](CCC(N)=O)NC(=S)Nc1ccc2c(c1)C(=O)OC21c2ccc(O)cc2Oc2cc(O)ccc21)C(=O)N[C@@H](CCC(N)=O)C(=O)NCC(=O)N1CCC[C@H]1C(=O)N1CCC[C@H]1C(=O)N[C@@H](Cc1ccc(O)cc1)C(=O)N1CCC[C@H]1C(=O)N[C@H](C(=O)N[C@@H](Cc1ccc(O)cc1)C(=O)N1CCC[C@H]1C(=O)NCC(=O)N[C@@H](Cc1ccc(O)cc1)C(=O)O)[C@@H](C)O` [FITC - PDCD6IP 797-809 (Human)] ({FITC}-QAQGPPYPTYPGY-OH) gave a Kd (CEP55 EABR) of 310 nM.

For NSMLNPNAVPFQPSPQY [N 2-17 (BeV)], the “affinity compared to the peptide from the endogenous PABP inhibitor PAIP2_108-123” value (PABPC1 PABC) was “ten-fold weaker”.

Work on “EPDQEPPPPYQEQVPVPVYHPTPSQ [RNF11 31-65 (Human)]” yielded a Kd (NEDD4 WW2) of 15 µM and a Kd (NEDD4 WW4) of 35 µM.

“PTDSNFYRALMDEEDM [EGFR 992-1007 (Human)]” was tested, and the Kd (AP2M1 MHD) was 2400 nM.

Work on VTVPTAPPAYADIGYP yielded a specificity [1] of 0.918, a RiboVD_mean_counts [1] of 10451.3 and a RiboVD_count_proportions [1] of 0.1499. It also gave a peptide_counts_proportion [1, 2] of 0.298, a peptide_counts_proportion [1, 3] of 0.131 and a peptide_counts_proportion [1, 4] of 0.021.

With PVPAPRKPTPAPRTAFR [P08411_1764_1780] the motif_found ([1]; bait CD2AP_SH3_1_Q9Y5K6_2_58) was “TRUE”.

With “GLRRTDLVDFVNGTVDY [RdRp 1840-1855 (SVV)]” the KD (CLTC NTD; pH 7.5) was “Low affinity binder”.

PPPVLYPNLAELENYM [SDCBP2 39-54 (Human)] was tested, and the Kd (ALIX V) was 2100 nM.

In the case of MSFGSF [P03317_1835_1840], the motif_found ([1]; bait G3BP2_NTF2_1_Q9UN86_1_139) is reported as “TRUE”.

Work on `CC(C)[C@H](NC(=O)[C@H](C)NC(=O)[C@@H](N)[C@@H](C)O)C(=O)N[C@@H](C)C(=O)N1CCC[C@H]1C(=O)N1CCC[C@H]1C(=O)N[C@@H](C)C(=O)N1CCC[C@H]1C(=O)N[C@H](C(=O)N[C@@H](Cc1ccc(O)cc1)C(=O)N[C@@H](CCCNC(=N)N)C(=O)N[C@@H](CO)C(=O)N[C@@H](C)C(=O)N[C@@H](CCC(=O)O)C(=O)N[C@@H](C)C(=O)N[C@@H](Cc1c[nH]cn1)C(=O)O)C(C)C` [NP 602-617 (REBOV)] yielded a Kd (CEP55 EABR) of 2180 nM.

In the case of “QAQGPPYPTYPGYPGY [PDCD6IP 797-812 (Human)]”, the Kd (CEP55 EABR) is reported as about 300 nM and the KD (CEP55 EABR) is reported as “same order or tighter as the probe; also recorded: Due to the limitatons of our experimental setup we could not calculate the KD values for this peptide, however our experiments suggest very high affinity (mid to low nanomolar)”.

“VPVDTNLIEFDTNYAT [ARRB2 367-382 (Human)]” showed a Kd (CLTC NTD) of 40 µM.

In the case of P36328_1787_1804, the motif_found ([1]; bait CD2AP_SH3_1_Q9Y5K6_2_58) is reported as “TRUE”.

For “LAVGPPSLNYIPPVLQ [TEX14 792-807 (Human)]”, the Kd (CEP55 EABR) was about 300 nM and the KD (CEP55 EABR) was “same order or tighter as the probe; also recorded: Due to the limitatons of our experimental setup we could not calculate the KD values for this peptide, however our experiments suggest very high affinity (mid to low nanomolar)”.

In the case of MSSLYPSLEDLKVDQA [SDCBP2 1-16 (Human)], the Kd (ALIX V) is reported as 290 nM.

`CC[C@H](C)[C@H](NC(=O)[C@H](CC(=O)O)NC(=O)[C@H](C)NC(=O)[C@H](Cc1ccc(O)cc1)NC(=O)[C@H](C)NC(=O)[C@@H]1CCCN1C(=O)[C@@H]1CCCN1C(=O)[C@H](C)NC(=O)[C@@H](NC(=O)[C@@H]1CCCN1C(=O)[C@@H](NC(=O)[C@@H](NC(=O)[C@@H](NC(=O)[C@H](CCCNC(=N)N)NC(=O)[C@H](CCCNC(=N)N)NC(=O)[C@@H](N)CCSC)C(C)C)[C@@H](C)O)C(C)C)[C@@H](C)O)C(=O)NCC(=O)N[C@@H](Cc1ccc(O)cc1)C(=O)N1CCC[C@H]1C(=O)N[C@@H](CCSC)C(=O)O` [VP40 1-20 (SEBOV)] was tested, and the Kd (NEDD4 WW2) was 22 µM and the Kd (NEDD4 WW4) was 68 µM.

With `CC(C)C[C@H](NC(=O)CNC(=O)[C@H](C)NC(=O)[C@@H](N)CO)C(=O)N[C@@H](CC(N)=O)C(=O)N1CCC[C@H]1C(=O)N[C@@H](C)C(=O)N[C@@H](C)C(=O)N[C@H](C(=O)N1CCC[C@H]1C(=O)N[C@@H](Cc1ccccc1)C(=O)N[C@H](C(=O)N1CCC[C@H]1C(=O)N[C@@H](CCCCN)C(=O)N[C@@H](CC(N)=O)C(=O)N[C@@H](CCC(N)=O)C(=O)N[C@@H](Cc1ccc(O)cc1)C(=O)O)C(C)C)C(C)C` [P/V/C 183-198 (HeV)] the “affinity compared to the peptide from the endogenous PABP inhibitor PAIP2_108-123” value (PABPC1 PABC) was “ten-fold weaker”.

TAPPAYADIGYPMSML was tested, and the specificity [1] was 0.889, the RiboVD_mean_counts [1] was 4550 and the RiboVD_count_proportions [1] was 0.1419. It also gave a peptide_counts_proportion [1, 2] of 0.002, a peptide_counts_proportion [1, 3] of 0.008 and a peptide_counts_proportion [1, 4] of 0.416.

“VDEEKGLYPNLKLTEPTAPMIHNYM [Nsp4 118-142 (BAV)]” showed a Kd (ALIX V) of 160000 nM.
